Data set [1] relates to complex regional pain syndrome type I. The conditions noted are these: 50% DMSO applied topically, N-acetylcysteine taken orally; cited from earlier work.
Data set [2] in a line: Stability of the active ingredients in the formulation buffered to pH 5.5-6.5. The class given is physicochemical. The conditions noted are these: pH 5.5-6.5 (lactic acid neutralized with sodium hydroxide) compared to more acidic or more basic conditions. From the text: Preferably, the present formulation for topical use is in the form of a cream or a lotion, and preferably has a pH between 5.5 and 6.5, advantageously about 6.

Data set [3] deals with abdominal incisional wound subjected to radiation. The conditions noted are these: oral and intra-peritoneal administration, model subjected to radiation; cited from earlier work.

As for `C[S+](C)[O-]` [50% DMSO, DMSO], the “efficacy in the treatment of complex regional pain syndrome type I” value in data set [1] was “equally efficient”.
With `CC(=O)N[C@@H](CS)C(=O)O` [N-acetylcysteine], the stability entry in data set [2] is listed as “improved”. In data set [1], the “efficacy in the treatment of complex regional pain syndrome type I” value is on record as “equally efficient”. The “effect on histological, biochemical and mechanical parameters of incisional wound healing” value in data set [3] is on record as “effectiveness”.
`NC(N)=O` [urea]: the stability entry in data set [2] is listed as “improved”.

Source of the values: patent US20210052524A1, “N-ACETYLCYSTEINE AND UREA-BASED FORMULATION FOR THE TREATMENT OF DERMATOLOGICAL DISORDERS” (DERMALENA DI CALDERAN ANDREA, priority 2017, published 2021).
